These are literature values, as cited in US20100068291A1, “Oral Medicament Based on a Proton Pump Inhibitor” (FLAMEL TECHNOLOGIES, S.A., priority 2005, published 2010).

Molecules are shown by their SMILES.

For the data set the following is noted: in vivo.

Turning to `COc1ccc2[nH]c([S+]([O-])Cc3ncc(C)c(OC)c3C)nc2c1` (stereo not shown) [omeprazole], the plasma half-life is 0.5-1 H.
